Measurements: patent US10829478B2, “5-[3-[piperazin-1-yl]-3-oxo-propyl]-imidazolidine-2,4-dione derivatives as ADAMTS 4 and 5 inhibitors for treating e.g. osteoarthritis” (Galapagos NV, priority 2016, dated 2020)
Like-named read-outs stand apart in the source and are kept apart here.

Key:
human ADAMTS4 = human ADAMTS4 (Homo sapiens (Human), UniProt O75173); experiment: hADAMTS-4 TBIS-1 cleavage assay, Protocol 2; assay type: biochemical
human MMP13 [1] = target: T1, human MMP13 (Homo sapiens (Human), UniProt P45452); experiment: hMMP13 assay, Protocol 1 (390 MMP FRET Substrate I, Chemicon enzyme); assay type: biochemical; conditions: Protocol 1, human MMP13 (Chemicon), read-out: hMMP-13 potency IC50
Procedure: (§1) Human MMP13 is preactivated by incubated the enzyme in the same buffer complemented with 1 mM freshly prepared p-Aminophenylmercuric acetate (AMPA) for 1 h at 37° C.

human ADAMTS6 = human ADAMTS6 (Homo sapiens (Human), UniProt Q9UKP5); experiment: hADAMTS-6 fluorescent based protease assay (520 MMP FRET substrate XII); assay type: biochemical; conditions: 37° C. for 2 h; read-out: hADAMTS-6 potency IC50
Sequence of human ADAMTS6 (Q9UKP5 other isoform, or with tags, fused parts or gaps): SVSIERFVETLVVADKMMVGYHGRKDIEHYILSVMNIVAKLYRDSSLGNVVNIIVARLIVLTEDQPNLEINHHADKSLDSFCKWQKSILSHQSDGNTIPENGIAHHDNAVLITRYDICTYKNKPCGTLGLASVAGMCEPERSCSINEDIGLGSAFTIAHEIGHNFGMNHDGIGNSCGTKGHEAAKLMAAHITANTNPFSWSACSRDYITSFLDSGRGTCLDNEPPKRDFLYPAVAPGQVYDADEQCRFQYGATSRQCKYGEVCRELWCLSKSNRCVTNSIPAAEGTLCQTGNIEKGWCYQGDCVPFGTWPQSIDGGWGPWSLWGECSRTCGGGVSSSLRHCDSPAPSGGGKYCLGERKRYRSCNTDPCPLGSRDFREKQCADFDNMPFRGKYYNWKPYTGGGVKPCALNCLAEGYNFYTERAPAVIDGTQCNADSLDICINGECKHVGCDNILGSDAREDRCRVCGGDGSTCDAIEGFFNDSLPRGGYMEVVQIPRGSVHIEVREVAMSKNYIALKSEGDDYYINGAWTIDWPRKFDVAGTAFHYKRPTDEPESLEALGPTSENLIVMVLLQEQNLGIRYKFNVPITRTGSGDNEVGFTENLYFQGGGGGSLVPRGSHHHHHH
Procedure: The IC50 value for test compounds can be determined in a fluorescent based protease assay.
The substrate contains sequence Arg-Pro-Lys-Pro-Tyr-Ala-Nva-Trp-Met-Lys (SEQ ID NO: 7) with attached a fluorescent probe and a quencher. Without ADAMTS6, the emission of the probe is quenched. If the substrate is cleaved by ADAMTS6, the emission of the probe is not quenched anymore. Inhibition of ADAMTS6 activity, will result in a decrease of the signal.
To perform the assay, 4 μL of a dilution series of compound in water, starting from 20 μM highest concentration, ⅕ dilution, is added to the wells. 2 ng ADAMTS6 enzyme is diluted in 25 mM Tris pH8.0, 0.05% CHAPS, 2.5 mM CaCl2 in a total volume of 26 μL (final concentration 0.73 nM). The reaction is started by addition of 10 μL of 1 μM 520 MMP FRET Substrate XII (final concentration, diluted in same buffer as described above) and the mixture is incubated at 37° C. for 2 h. […] After this incubation, cleavage of the substrate is measured using the Envision (Perkin Elmer, exc485/em530).

human ADAMTS-5 = human ADAMTS-5 (Homo sapiens (Human), UniProt Q9UNA0); experiment: hADAMTS-5 TBIS-1 cleavage assay, Protocol 3; assay type: biochemical; conditions: 90 min at 37° C., read-out: hADAMTS-5 potency IC50
Sequence of human ADAMTS-5 (Q9UNA0 262-930): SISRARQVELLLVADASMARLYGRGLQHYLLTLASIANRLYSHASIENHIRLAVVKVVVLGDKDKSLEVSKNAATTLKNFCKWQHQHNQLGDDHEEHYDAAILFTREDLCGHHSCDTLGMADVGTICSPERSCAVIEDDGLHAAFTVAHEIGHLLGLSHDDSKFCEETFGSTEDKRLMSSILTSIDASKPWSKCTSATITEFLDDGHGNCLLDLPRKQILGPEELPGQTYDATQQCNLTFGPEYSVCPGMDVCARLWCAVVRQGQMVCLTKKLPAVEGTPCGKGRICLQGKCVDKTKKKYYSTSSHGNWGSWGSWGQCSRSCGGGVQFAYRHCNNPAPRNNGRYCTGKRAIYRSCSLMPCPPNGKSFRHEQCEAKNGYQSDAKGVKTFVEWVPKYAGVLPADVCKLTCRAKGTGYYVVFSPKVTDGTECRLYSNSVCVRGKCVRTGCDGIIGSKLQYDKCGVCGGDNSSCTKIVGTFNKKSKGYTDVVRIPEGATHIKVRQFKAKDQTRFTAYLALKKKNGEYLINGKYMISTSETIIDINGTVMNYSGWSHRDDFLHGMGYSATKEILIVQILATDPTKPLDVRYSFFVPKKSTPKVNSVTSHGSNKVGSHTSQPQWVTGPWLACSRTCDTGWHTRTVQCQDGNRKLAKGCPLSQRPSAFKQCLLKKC
Procedure: The reaction is initiated by adding to the assay plate TBIS-1 (10 μL, 4.5 μM, Anaspec) in the same buffer.
Finally, the fluorescence is read on the Envision (Perkin Elmer) after an incubation of 90 min at 37° C. (Excitation 485 nm, emission 530).

human TACE = human TACE (Homo sapiens (Human), UniProt P78536); experiment: biochemical
Sequence of human TACE (P78536 215-671): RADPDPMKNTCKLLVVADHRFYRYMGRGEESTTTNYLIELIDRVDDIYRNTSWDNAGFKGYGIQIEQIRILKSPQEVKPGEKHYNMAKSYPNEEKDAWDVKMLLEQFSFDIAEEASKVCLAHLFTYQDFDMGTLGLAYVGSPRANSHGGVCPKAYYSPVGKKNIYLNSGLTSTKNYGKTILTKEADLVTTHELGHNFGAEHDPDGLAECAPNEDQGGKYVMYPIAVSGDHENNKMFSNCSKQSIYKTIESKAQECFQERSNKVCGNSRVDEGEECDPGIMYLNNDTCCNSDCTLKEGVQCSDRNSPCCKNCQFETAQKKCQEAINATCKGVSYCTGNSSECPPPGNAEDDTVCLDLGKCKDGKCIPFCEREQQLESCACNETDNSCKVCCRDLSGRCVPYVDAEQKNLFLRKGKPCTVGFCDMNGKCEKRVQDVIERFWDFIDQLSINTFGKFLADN
Procedure: Finally, the fluorescence is read on the Envision (Perkin Elmer) after an incubation of 75 min at room temperature (Excitation 485 nm, Emission 530).

human MMP13 [2] = target: T1, human MMP13; experiment: hMMP13 assay, Protocol 2 (390 MMP FRET Substrate I, Enzo enzyme); assay type: biochemical; conditions: Protocol 2, human MMP13 (Enzo Life Sciences), read-out: hMMP-13 potency IC50
Procedure: as §1

human MMP14 = human MMP14 (Homo sapiens (Human), UniProt P50281); experiment: hMMP14 assay (390 MMP FRET Substrate I); assay type: biochemical; conditions: human MMP14 (Biomol), read-out: hMMP-14 potency IC50
Procedure: The basis for the assay is the cleavage of the substrate 390 MMP FRET Substrate I (Anaspec Cat #AS-27076) by human MMP14 (Biomol, Cat #SE-259).
The reaction is initiated by adding to the assay plate 390 MMP FRET Substrate I (10 μL, 2.5 μM) in the same buffer.
Finally, the fluorescence is read on the Envision (Perkin Elmer) after an incubation of 60 min at room temperature (Excitation 485 nm, Emission 530).

[3] = Protocol 2, 180 min at 37° C., read-out: ADAMTS4 potency IC50

Sequence of human ADAMTS4 (O75173 213-837): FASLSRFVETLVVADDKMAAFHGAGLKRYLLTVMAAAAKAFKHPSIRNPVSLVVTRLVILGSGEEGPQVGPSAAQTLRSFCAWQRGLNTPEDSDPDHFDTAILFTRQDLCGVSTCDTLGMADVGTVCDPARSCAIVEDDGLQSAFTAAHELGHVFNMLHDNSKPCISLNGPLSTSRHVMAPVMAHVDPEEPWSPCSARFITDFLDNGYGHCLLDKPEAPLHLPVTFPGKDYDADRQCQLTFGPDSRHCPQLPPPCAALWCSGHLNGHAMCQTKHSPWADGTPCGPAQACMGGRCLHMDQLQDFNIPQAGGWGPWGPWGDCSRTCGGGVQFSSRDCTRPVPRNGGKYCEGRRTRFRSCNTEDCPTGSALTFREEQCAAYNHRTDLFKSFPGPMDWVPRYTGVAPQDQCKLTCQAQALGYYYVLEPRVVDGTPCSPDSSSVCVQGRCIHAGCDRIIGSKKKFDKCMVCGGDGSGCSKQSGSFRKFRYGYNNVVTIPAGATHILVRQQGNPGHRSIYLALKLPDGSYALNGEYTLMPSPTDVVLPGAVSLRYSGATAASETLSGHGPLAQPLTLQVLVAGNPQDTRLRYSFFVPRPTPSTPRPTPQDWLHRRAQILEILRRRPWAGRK

Structure (SMILES)	IC50 (human ADAMTS4; [3]) [nM]	IC50 (human MMP13 [1]) [nM]	IC50 (human ADAMTS6) [nM]	IC50 (human ADAMTS-5) [nM]	IC50 (human TACE) [nM]	IC50 (human MMP13 [2]) [nM]	IC50 (human ADAMTS4) [nM]	IC50 (human MMP14) [nM]
COc1cc(N2CCN(C(=O)CCC3(C)NC(=O)NC3=O)CC2)cc(Cl)c1F (stereo not drawn) [Cpd 50, 5-[3-[4-(3-chloro-4-fluoro-5-methoxy-phenyl)piperazin-1-yl]-3-oxo-propyl]-5-methyl-imidazolidine-2,4-dione]	> 100	> 100	0.001 to 25	> 100	> 100			
COc1cc(N2CCN(C(=O)CC[C@@]3(C)NC(=O)NC3=O)C[C@@H]2C)cc(Cl)c1Cl [Cpd 90, (5R)-5-[3-[(3 S)-4-(3,4-dichloro-5-methoxy-phenyl)-3-methyl-piperazin-1-yl]-3-oxo-propyl]-5-methyl-imidazolidine-2,4-dione]			0.001 to 25	0.001 to 25	> 100	> 100	25 to 50	> 100
COc1cc(N2CCN(C(=O)[C@@H](C)C[C@@]3(c4ccccn4)NC(=O)NC3=O)C[C@@H]2C)cc(F)c1F (stereo in doubt) [Cpd 49, 5-[3-[(3 S)-4-(3,4-difluoro-5-methoxy-phenyl)-3-methyl-piperazin-1-yl]-2-methyl-3-oxo-propyl]-5-(2-pyridyl)imidazolidine-2,4-dione]			0.001 to 25	25 to 50	> 100		50 to 100	
COc1cc(N2CCN(C(=O)CC[C@H]3NC(=O)NC3=O)CC2)cc(F)c1F [Cpd 128, (5R)-5-[3-[4-(3,4-difluoro-5-methoxy-phenyl)piperazin-1-yl]-3-oxo-propyl]imidazolidine-2,4-dione]	> 100	> 100	50 to 100	> 100	> 100			
COCC1(CC(C)C(=O)N2CCN(c3cc(F)c(F)c(OC)c3)[C@@H](C)C2)NC(=O)NC1=O (mixture of isomers) [Cpd 46, 5-[3-[(3S)-4-(3,4-difluoro-5-methoxy-phenyl)-3-methyl-piperazin-1-yl]-2-methyl-3-oxo-propyl]-5-(methoxymethyl)imidazolidine-2,4-dione]		> 100	0.001 to 25	25 to 50	> 100		25 to 50	
COc1cc(N2CCN(C(=O)CCC3(C)NC(=O)NC3=O)CC2)cc(Cl)c1Cl (stereo not drawn) [Cpd 48, 5-[3-[4-(3,4-dichloro-5-methoxy-phenyl)piperazin-1-yl]-3-oxo-propyl]-5-methyl-imidazolidine-2,4-dione]	> 100	> 100	0.001 to 25	50 to 100	> 100			> 100
COc1cc(N2CCN(C(=O)CC[C@H]3NC(=O)NC3=O)CC2)cc(Cl)c1Cl [Cpd 145, (5R)-5-[3-[4-(3,4-dichloro-5-methoxy-phenyl)piperazin-1-yl]-3-oxo-propyl]imidazolidine-2,4-dione]	> 100	> 100	0.001 to 25	50 to 100	> 100			> 100
COCC1(CC(C)C(=O)N2CCN(c3ccc(Cl)c(OC)c3)[C@@H](C)C2)NC(=O)NC1=O (mixture of isomers) [Cpd 47, 5-[3-[(3S)-4-(4-chloro-3-methoxy-phenyl)-3-methyl-piperazin-1-yl]-2-methyl-3-oxo-propyl]-5-(methoxymethyl)imidazolidine-2,4-dione]		> 100	0.001 to 25	25 to 50	> 100		25 to 50	> 100
COc1cc(N2CCN(C(=O)CCC3(C)NC(=O)NC3=O)C[C@@H]2C)cc(F)c1F (stereo partly drawn) [Cpd 22, 5-[3-[(3 S)-4-(3,4-difluoro-5-methoxy-phenyl)-3-methyl-piperazin-1-yl]-3-oxo-propyl]-5-methyl-imidazolidine-2,4-dione]	> 100	> 100	0.001 to 25	> 100	> 100			
COc1cncc(N2CCN(C(=O)CCC3(C4CC4)NC(=O)NC3=O)C[C@@H]2C)c1 (stereo partly drawn) [Cpd 60, 5-cyclopropyl-5-[3-[(3S)-4-(5-methoxy-3-pyridyl)-3-methyl-piperazin-1-yl]-3-oxo-propyl]imidazolidine-2,4-dione]	> 100		> 100	> 100	> 100			
CC(C)c1cc(N2CCN(C(=O)CC[C@@]3(C)NC(=O)NC3=O)C[C@@H]2C)ccc1Cl [Cpd 85, (5R)-5-[3-[(3 S)-4-(4-chloro-3-isopropyl-phenyl)-3-methyl-piperazin-1-yl]-3-oxo-propyl]-5-methyl-imidazolidine-2,4-dione]	> 100		0.001 to 25			> 100		
CCc1cccc(N2CCN(C(=O)CC[C@@]3(C)NC(=O)NC3=O)CC2)c1 [Cpd 70, (5R)-5-[3-[4-(3-ethylphenyl)piperazin-1-yl]-3-oxo-propyl]-5-methyl-imidazolidine-2,4-dione]			> 100	> 100	> 100			
COc1c(Cl)cccc1N1CCN(C(=O)CC[C@@]2(C)NC(=O)NC2=O)C[C@@H]1C [Cpd 69, (5R)-5-[3-[(3 S)-4-(3-chloro-2-methoxy-phenyl)-3-methyl-piperazin-1-yl]-3-oxo-propyl]-5-methyl-imidazolidine-2,4-dione]			> 100	> 100	> 100			
CCc1cc(N2CCN(C(=O)CCC3(CCC(=O)OC(C)(C)C)NC(=O)NC3=O)C[C@@H]2C)ccc1Cl (stereo partly drawn) [Cpd 114, tert-butyl 3-[4-[3-[(3S)-4-(4-chloro-3-ethyl-phenyl)-3-methyl-piperazin-1-yl]-3-oxo-propyl]-2,5-dioxo-imidazolidin-4-yl]propanoate]	> 100		0.001 to 25			> 100		
COc1cc(F)ccc1N1CCN(C(=O)CC[C@@]2(C)NC(=O)NC2=O)CC1 [Cpd 78, (5R)-5-[3-[4-(4-fluoro-2-methoxy-phenyl)piperazin-1-yl]-3-oxo-propyl]-5-methyl-imidazolidine-2,4-dione]			> 100	> 100	> 100			
COc1cc(N2CCN(C(=O)CC[C@@]3(C)NC(=O)NC3=O)CC2)cc(F)c1F [Cpd 20, (R)-5-[3-[4-(3,4-difluoro-5-methoxy-phenyl)piperazin-1-yl]-3-oxo-propyl]-5-methyl-imidazolidine-2,4-dione]	> 100	> 100	0.001 to 25	> 100	> 100			
COc1cc(F)cc(N2CCN(C(=O)CC[C@@]3(C)NC(=O)NC3=O)CC2)c1 [Cpd 19, (R)-5-[3-[4-(3-fluoro-5-methoxy-phenyl)piperazin-1-yl]-3-oxo-propyl]-5-methyl-imidazolidine-2,4-dione]	> 100	> 100	50 to 100	> 100	> 100			
COc1cc(Cl)c(C)cc1N1CCN(C(=O)CCC2(C)NC(=O)NC2=O)CC1 (stereo not drawn) [Cpd 58, 5-[3-[4-(4-chloro-2-methoxy-5-methyl-phenyl)piperazin-1-yl]-3-oxo-propyl]-5-methyl-imidazolidine-2,4-dione]	> 100		25 to 50	> 100	> 100	> 100		
COc1cc(N2CCN(C(=O)CC[C@H]3NC(=O)NC3=O)CC2)cc(F)c1Cl [Cpd 143, (5R)-5-[3-[4-(4-chloro-3-fluoro-5-methoxy-phenyl)piperazin-1-yl]-3-oxo-propyl]imidazolidine-2,4-dione]	> 100	> 100	0.001 to 25	> 100	> 100			
CCc1cc(N2CCN(C(=O)[C@@H](C)C[C@@]3(COC)NC(=O)NC3=O)C[C@@H]2C)ccc1Cl (stereo in doubt) [Cpd 124, 5-[3-[(3S)-4-(4-chloro-3-ethyl-phenyl)-3-methyl-piperazin-1-yl]-2-methyl-3-oxo-propyl]-5-(methoxymethyl)imidazolidine-2,4-dione]	> 100		0.001 to 25			> 100		
COc1cc(N2CCN(C(=O)CC[C@H]3NC(=O)NC3=O)CC2)cc(OC)c1F [Cpd 151, (5R)-5-[3-[4-(4-fluoro-3,5-dimethoxy-phenyl)piperazin-1-yl]-3-oxo-propyl]imidazolidine-2,4-dione]			25 to 50	> 100	> 100			
CCc1cc(N2CCN(C(=O)CCC3(CCC(=O)O)NC(=O)NC3=O)C[C@@H]2C)ccc1Cl (stereo partly drawn) [Cpd 116, 3-[4-[3-[(3 S)-4-(4-chloro-3-ethyl-phenyl)-3-methyl-piperazin-1-yl]-3-oxo-propyl]-2,5-dioxo-imidazolidin-4-yl]propanoic acid]	> 100		0.001 to 25			> 100		
